Laboratory results: PubChem BioAssay AID1963847 (Molecular Pharmacology Branch, DTP, NCI, 2024)

Test system: 415267-285-R-J2-PDC complex spheroid viability
Assay: Anticancer human tumor 415267-285-R-J2-PDC patient-derived breast carcinoma cell line growth inhibition [POLQ]
Conditions: for IC50: curve of first compound; for viability, T/C: stronger effect = lower value; active = viability on the fitted dose curve at most 10% of control; inactive = the rest
Description: Multicellular complex tumor spheroid response to Polymerase (POL) inhibitors (novobiocin, ART-558, RP6685) in combination with a variety of drugs and investigational agents in selected tumor cell lines
The POL inhibitors (novobiocin, ART-558, and RP6685) were evaluated both individually and in combination with standard of care and investigational anticancer small molecules within a complex spheroid model of solid tumors. . Complex spheroids include a stromal component modeled by human endothelial cells (HUVEC) and fibroblasts modeled by human mesenchymal stem cells (MSCs). The concentration ranges selected for each drug and investigational agent were based upon clinically achievable concentrations if the clinical Cmax of the agent was known.
Compounds. The drugs and investigational agents: novobiocin (NSC847541), ART-558 (NSC835418), RP-6685 (NSC848927), peposertib (NSC802822), ceralasertib (NSC780249), elimusertib (NSC800525), camonsertib (NSC841442), AZD-1390 (NSC803789), olaparib (NSC753686), talazoparib (NSC767125), rucaparib (NSC756644), sotorasib (NSC818433), MRTX-1133 (NSC836407), SN-38 (NSC673596), topotecan (NSC609699), epotoside (NSC141540), doxorubicin (NSC123127), gemcitabine (NSC613327), 5-fluorouracil (NSC19893), paclitaxel (NSC125973), vemurafenib (NSC761431), MSA-2 (NSC828583), SN-011 (NSC837082), adavosertib (NSC754352), prexasertib (NSC758257), carboplatin (NSC241240) and oxaliplatin (NSC266046), were obtained from the National Cancer Institute (NCI) Developmental Therapeutics Program Chemical Repository (21). The FDA-approved anticancer drug set is available from the Developmental Therapeutics Program at https://dtp.cancer.gov/organization/dscb/obtaining/. […] The stock solutions were prepared in dimethyl sulfoxide (DMSO, Sigma-Aldrich, St. Louis, MO, cat. D2650), except for the platinum compounds which were prepared in saline (Quality Biological, Gaithersburg, MD, cat. 114-055-101), at 800-fold the tested concentration and stored at -70 degrees C prior to their use. All drugs and investigational agents were tested over a range starting from a high concentration at or near the clinical Cmax and decreasing in half-log increments. If the clinical Cmax for an agent had not been determined, the highest concentration tested was 10 microM, except for SN-38, which was tested at a high concentration of 1 microM.
Cell Culture. All cells were maintained in an incubator at 37 degrees C and 5% CO2 with 95% humidity. The PDC lines were cultured according to standard operating procedures established by the NCI PDMR (https://pdmr.cancer.gov). Table 3 of the manuscript, lists the cell lines along with the number of the three cell types plated to form the mct-spheroids and media for tumor cell growth. After thawing, all PDC lines, except 997537-175-T-J1-PDC and 415267-285-R-J2-PDC, were cultured in Matrigel-coated flasks prepared with a working solution of 1X Ham's F-12 nutrient mix, without supplementation (Thermo Fisher Scientific, cat. 11765054), 100 U/mL penicillin-streptomycin (Thermo Fisher Scientific, cat. 15140122), and 2.5% Matrigel (Corning Inc., Corning, NY, cat. 354248) for the first three passages. The two PDC lines 997537-175-T-J1-PDC and 415267-285-R-J2-PDC were cultured on uncoated flasks. The 857933-349-R-J2-PDC line was cultured in 6C/Colon 1B media containing advanced DMEM/F-12 (Thermo Fisher Scientific, cat. 12634028), 10 mM HEPES (Thermo Fisher Scientific, cat. 15630080), 1X GlutaMAX supplement (Thermo Fisher Scientific, cat. 35050061), 0.1 mg/mL primocin (InvivoGen, San Diego, CA, cat. ant-pm-2), 10% defined fetal bovine serum, heat inactivated (HyClone Laboratories Inc., Logan, UT, cat. SH30070.03HI), 50% L-WRN conditioned media (ATCC, cat. CRL-3276), 1.25 mM N-Acetyl-L-cysteine (Sigma-Aldrich, cat. A9165), 10 mM nicotinamide (Sigma-Aldrich, cat. N0636), 1X B-27 supplement (Thermo Fisher Scientific, cat. 17504044), 1X N-2 supplement (Thermo Fisher Scientific, cat. […]

[1] = second compound 0.0316 µM, first compound 0.0316 µM
[2] = second compound 0.0316 µM, first compound 0.1 µM
[3] = second compound 0.1 µM, first compound 0.0316 µM
[4] = second compound 0.1 µM, first compound 0.1 µM
[5] = second compound 0.316 µM, first compound 0.0316 µM
[6] = second compound 0.316 µM, first compound 0.1 µM
[7] = second compound 1 µM, first compound 0.0316 µM
[8] = second compound 1 µM, first compound 0.1 µM
[9] = second compound 3.16 µM, first compound 0.0316 µM
[10] = second compound 3.16 µM, first compound 0.1 µM
[11] = second compound 10 µM, first compound 0.0316 µM
[12] = second compound 10 µM, first compound 0.1 µM
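Also: spheroids exposed to compounds for one week before readout.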
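For viability, T/C in this document: luminescence used as stand-in measure of viable cells.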

Cn1ncnc1[C@H]1c2n[nH]c(=O)c3cc(F)cc(c23)N[C@@H]1c1ccc(F)cc1 + Nc1ccc(C#CCN(C(=O)Cc2ncc(C(F)(F)F)cc2C(F)(F)F)c2ccc(F)cc2)nn1
inactive: viability, T/C (second compound 0.0316 µM, first compound 0.000316 µM) 101% | viability, T/C (second compound 0.0316 µM, first compound 0.001 µM) 97.2% | viability, T/C (second compound 0.0316 µM, first compound 0.00316 µM) 101% | viability, T/C (second compound 0.0316 µM, first compound 0.01 µM) 93.7% | viability, T/C [1] 95.8% | viability, T/C [2] 97.8% | viability, T/C (second compound 0.1 µM, first compound 0.000316 µM) 96.7% | viability, T/C (second compound 0.1 µM, first compound 0.001 µM) 109% | viability, T/C (second compound 0.1 µM, first compound 0.00316 µM) 86.9% | viability, T/C (second compound 0.1 µM, first compound 0.01 µM) 92.6% | viability, T/C [3] 99.8% | viability, T/C [4] 94.8% | viability, T/C (second compound 0.316 µM, first compound 0.000316 µM) 88.7% | viability, T/C (second compound 0.316 µM, first compound 0.001 µM) 102% | viability, T/C (second compound 0.316 µM, first compound 0.00316 µM) 88.2% | viability, T/C (second compound 0.316 µM, first compound 0.01 µM) 99.6% | viability, T/C [5] 95.5% | viability, T/C [6] 110% | viability, T/C (second compound 1 µM, first compound 0.000316 µM) 98.9% | viability, T/C (second compound 1 µM, first compound 0.001 µM) 101% | viability, T/C (second compound 1 µM, first compound 0.00316 µM) 109% | viability, T/C (second compound 1 µM, first compound 0.01 µM) 99.5% | viability, T/C [7] 105% | viability, T/C [8] 120% | viability, T/C (second compound 3.16 µM, first compound 0.000316 µM) 97.8% | viability, T/C (second compound 3.16 µM, first compound 0.001 µM) 113% | viability, T/C (second compound 3.16 µM, first compound 0.00316 µM) 114% | viability, T/C (second compound 3.16 µM, first compound 0.01 µM) 91.6% | viability, T/C [9] 101% | viability, T/C [10] 108% | viability, T/C (second compound 10 µM, first compound 0.000316 µM) 89.8% | viability, T/C (second compound 10 µM, first compound 0.001 µM) 105% | viability, T/C (second compound 10 µM, first compound 0.00316 µM) 108% | viability, T/C (second compound 10 µM, first compound 0.01 µM) 94.2% | viability, T/C [11] 101% | viability, T/C [12] 105%
> 100 nM: IC50 (second compound 0.0316 µM) | IC50 (second compound 0.1 µM) | IC50 (second compound 0.316 µM) | IC50 (second compound 1 µM) | IC50 (second compound 3.16 µM) | IC50 (second compound 10 µM)

CC1COCCN1c1cc(-c2ccnn2C)c2ccnc(-c3ccn[nH]3)c2n1 (centres undefined) + Cc1cccc(N(C)C(=O)C2C(O)CCN2c2nc(C)cc(C(F)(F)F)c2C#N)c1
35.9 nM: IC50 (second compound 10 µM)
inactive: viability, T/C [1] 44% | viability, T/C [2] 17.2% | viability, T/C [3] 41.2% | viability, T/C [4] 11.3% | viability, T/C [5] 47.2% | viability, T/C [6] 13.3% | viability, T/C [7] 52.6% | viability, T/C [8] 10.9% | viability, T/C [9] 52.2% | viability, T/C [10] 10.7% | viability, T/C [11] 53.4% | viability, T/C [12] 22.9%
active: viability, T/C (second compound 0.0316 µM, first compound 0.316 µM) 6.77% | viability, T/C (second compound 0.0316 µM, first compound 1 µM) 4.72% | viability, T/C (second compound 0.0316 µM, first compound 3.16 µM) 4.84% | viability, T/C (second compound 0.0316 µM, first compound 10 µM) 4.51% | viability, T/C (second compound 0.1 µM, first compound 0.316 µM) 6.11% | viability, T/C (second compound 0.1 µM, first compound 1 µM) 4.5% | viability, T/C (second compound 0.1 µM, first compound 3.16 µM) 4.14% | viability, T/C (second compound 0.1 µM, first compound 10 µM) 5.26% | viability, T/C (second compound 0.316 µM, first compound 0.316 µM) 5.28% | viability, T/C (second compound 0.316 µM, first compound 1 µM) 4.19% | viability, T/C (second compound 0.316 µM, first compound 3.16 µM) 4.21% | viability, T/C (second compound 0.316 µM, first compound 10 µM) 4.67% | viability, T/C (second compound 1 µM, first compound 0.316 µM) 6.08% | viability, T/C (second compound 1 µM, first compound 1 µM) 4.95% | viability, T/C (second compound 1 µM, first compound 3.16 µM) 4.35% | viability, T/C (second compound 1 µM, first compound 10 µM) 4.81% | viability, T/C (second compound 3.16 µM, first compound 0.316 µM) 5.26% | viability, T/C (second compound 3.16 µM, first compound 1 µM) 4.41% | viability, T/C (second compound 3.16 µM, first compound 3.16 µM) 4.33% | viability, T/C (second compound 3.16 µM, first compound 10 µM) 4.61% | viability, T/C (second compound 10 µM, first compound 0.316 µM) 5.93% | viability, T/C (second compound 10 µM, first compound 1 µM) 4.73% | viability, T/C (second compound 10 µM, first compound 3.16 µM) 5.68% | viability, T/C (second compound 10 µM, first compound 10 µM) 4.55%
33.6 nM: IC50 (second compound 3.16 µM)
33.9 nM: IC50 (second compound 1 µM)
< 31.6 nM: IC50 (second compound 0.0316 µM) | IC50 (second compound 0.1 µM) | IC50 (second compound 0.316 µM)
